Consider 30 molecules from patent publication US9663473B2 (Actelion Pharmaceuticals Ltd, priority 2013, dated 2017).

This assay has as its target T1, recombinant human ALX receptor (Homo sapiens, UniProt P25090).
T1 construct: expressed in transfected cells; host or cells: HEK293 (HEK293-hALXR-Gα16)
T1 sequence (P25090 1-351): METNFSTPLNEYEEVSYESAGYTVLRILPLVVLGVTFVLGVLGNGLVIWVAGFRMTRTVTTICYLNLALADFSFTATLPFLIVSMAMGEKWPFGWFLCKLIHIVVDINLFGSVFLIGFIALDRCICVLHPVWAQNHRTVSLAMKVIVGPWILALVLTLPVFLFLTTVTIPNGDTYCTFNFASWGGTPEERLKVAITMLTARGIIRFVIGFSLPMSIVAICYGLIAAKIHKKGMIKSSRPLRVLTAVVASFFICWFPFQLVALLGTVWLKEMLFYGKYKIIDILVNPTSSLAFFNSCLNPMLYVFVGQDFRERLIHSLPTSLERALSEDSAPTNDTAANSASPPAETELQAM
Put plainly: Intracellular calcium measurements (FLIPR), ALX receptor agonistic activity. The assay is classed as cell-based. The note with it: HEK293-hALXR-Gα16 cells, Fluo-4 calcium signal, normalized to WKYMVm 10 nM. The procedure, abridged: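 HEK293 cells co-expressing human ALX receptor and Gα16 were loaded with 1 μM Fluo-4 AM for 60 min at 37° C., then exposed to serially diluted compounds on FLIPR Tetra. Peak fluorescence above baseline (ex 488/em 540 nm) was normalized to 10 nM WKYMVm as high control.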

Where a name gives a salt, the structure may show the parent alone.

On to `COc1ccc(CC(NC(=O)NC2CCC(CCO)CC2)c2nc3ccccc3[nH]2)cc1` (stereo not drawn) [Example 107, 1-(1-(1H-Benzo[d]imidazol-2-yl)-2-(4-methoxyphenyl)ethyl)-3-(4-(2-hydroxyethyl)cyclohexyl)urea], for which the EC50 (as a rule, the concentration that produces a half-maximal response) is 6 nM.

Regarding `COc1ccc(CC(NC(=O)NC2CCCC2)c2nc3ccccc3[nH]2)cc1` (stereo not drawn) [Example 12, 1-(1-(1H-Benzo[d]imidazol-2-yl)-2-(4-methoxyphenyl)ethyl)-3-cyclopentylurea], the EC50 stood at 45 nM.

Regarding `COc1ccc(C[C@@H](NC(=O)N[C@@H](C)c2ccc(Cl)cc2)c2nc3ccccc3[nH]2)cc1` [Example 328, 1-((R)-1-(1H-Benzo[d]imidazol-2-yl)-2-(4-methoxyphenyl)ethyl)-3-((S)-1-(4-chlorophenyl)ethyl)urea], the EC50 is 152 nM. The figure for `COc1ccc(C[C@@H](NC(=O)N[C@H]2CC[C@@H](C(=O)OC)CC2)c2nc3ccccc3[nH]2)cc1` [Example 223, cis-Methyl 4-(3-((R)-1-(1H-benzo[d]imidazol-2-yl)-2-(4-methoxyphenyl)ethyl)ureido)cyclohexanecarboxylate] is 178 nM.

In the case of `COc1ccc(C[C@@H](NC(=O)NC2CCN(CCF)CC2)c2nc3ccccc3[nH]2)cc1` [Example 181, (R)-1-(1-(1H-Benzo[d]imidazol-2-yl)-2-(4-methoxyphenyl)ethyl)-3-(1-(2-fluoroethyl)piperidin-4-yl)urea], the EC50 amounted to 88 nM.

On to `CCOc1ccccc1CCNC(=O)N[C@H](Cc1ccc(OC)cc1)c1nc2ccccc2[nH]1` [Example 73, (R)-1-(1-(1H-Benzo[d]imidazol-2-yl)-2-(4-methoxyphenyl)ethyl)-3-(2-ethoxyphenethyl)urea], for which the EC50 was 99 nM. The value for `COc1ccc(C[C@@H](NC(=O)NC2(c3cccc(Cl)c3)CC2)c2nc3ccccc3[nH]2)cc1` [Example 283, (R)-1-(1-(1H-Benzo[d]imidazol-2-yl)-2-(4-methoxyphenyl)ethyl)-3-(1-(3-chlorophenyl)cyclopropyl)urea] was 295 nM. The figure for `CCn1nccc1NC(=O)NC(Cc1ccc(OC)cc1)c1nc2ccccc2[nH]1` (stereo not drawn) [Example 417, 1-(1-(1H-benzo[d]imidazol-2-yl)-2-(4-methoxyphenyl)ethyl)-3-(1-ethyl-1H-pyrazol-5-yl)urea] is 61 nM; for `COc1ccc(C[C@@H](NC(=O)NC2CCCN(CCF)C2)c2nc3ccccc3[nH]2)cc1` (stereo partly drawn) [Example 180, 1-((R)-1-(1H-Benzo[d]imidazol-2-yl)-2-(4-methoxyphenyl)ethyl)-3-(1-(2-fluoroethyl)piperidin-3-yl)urea] it is 59 nM; for `COc1cc(F)c(CC(NC(=O)NC23CCC(O)(CC2)CC3)c2nc3ccccc3[nH]2)cc1F` (single isomer, unassigned; ent-1) [Example 357, 1-(1-(1H-Benzo[d]imidazol-2-yl)-2-(2,5-difluoro-4-methoxyphenyl)ethyl)-3-(4-hydroxybicyclo[2.2.2]octan-1-yl)urea (ent-1)] it is 1 nM. Take `COc1ccc(C2(C(NC(=O)N[C@H]3CC[C@H](O)CC3)c3nc4ccccc4[nH]3)CC2)cc1` (relative stereo) [Example 2, 1-((1H-Benzo[d]imidazol-2-yl)(1-(4-methoxyphenyl)cyclopropyl)methyl)-3-(trans-4-hydroxycyclohexyl)urea]: the EC50 was found to be 81 nM. The figure for `COc1ccc(C[C@@H](NC(=O)N[C@H](C(N)=O)c2ccccc2)c2nc3ccccc3[nH]2)cc1` [Example 339, (S)-2-(3-((R)-1-(1H-Benzo[d]imidazol-2-yl)-2-(4-methoxyphenyl)ethyl)ureido)-2-phenylacetamide] is 39 nM; for `COc1ccc(C(C)C(NC(=O)N[C@H]2CC[C@H](O)CC2)c2nc3ccccc3[nH]2)cc1` (relative stereo) [Example 395, 1-(1-(1H-Benzo[d]imidazol-2-yl)-2-(4-methoxyphenyl)propyl)-3-(trans-4-hydroxycyclohexyl)urea] it is 6.4 nM; for `COc1ccc(CC(NC(=O)N(C)[C@H]2CC[C@H](O)CC2)c2nc3ccccc3[nH]2)cc1` (relative stereo) [Example 76, 3-(1-(1H-Benzo[d]imidazol-2-yl)-2-(4-methoxyphenyl)ethyl)-1-(trans-4-hydroxycyclohexyl)-1-methylurea] it is 540 nM. The value for `COc1ccc(CC(C)(NC(=O)Nc2cc(C3CC3)nn2C)c2nc3ccccc3[nH]2)cc1` (stereo not drawn) [Example 422, 1-(2-(1H-benzo[d]imidazol-2-yl)-1-(4-methoxyphenyl)propan-2-yl)-3-(3-cyclopropyl-1-methyl-1H-pyrazol-5-yl)urea] was 720 nM; that for `COCC(Cc1ccccc1)NC(=O)N[C@H](Cc1ccc(OC)cc1)c1nc2ccccc2[nH]1` (stereo partly drawn) [Example 70, 1-((R)-1-(1H-Benzo[d]imidazol-2-yl)-2-(4-methoxyphenyl)ethyl)-3-(1-methoxy-3-phenylpropan-2-yl)urea] was 17 nM; that for `COc1ccc(CC(C)(NC(=O)N[C@H]2CC[C@H](O)CC2)c2nc3ccccc3[nH]2)cc1` (relative stereo) [Example 1, 1-(2-(1H-Benzo[d]imidazol-2-yl)-1-(4-methoxyphenyl)propan-2-yl)-3-(trans-4-hydroxycyclohexyl)urea] was 152 nM.

Regarding `COc1ccc(C[C@@H](NC(=O)NCCc2cc(C)ccc2C)c2nc3ccccc3[nH]2)cc1` [Example 306, (R)-1-(1-(1H-Benzo[d]imidazol-2-yl)-2-(4-methoxyphenyl)ethyl)-3-(2,5-dimethylphenethyl)urea], the EC50 is 60 nM. The value for `COc1ccc(C[C@@H](NC(=O)NC2CCN(S(C)(=O)=O)C2)c2nc3ccccc3[nH]2)cc1` (stereo partly drawn) [Example 157, 1-((R)-1-(1H-Benzo[d]imidazol-2-yl)-2-(4-methoxyphenyl)ethyl)-3-(1-(methylsulfonyl)pyrrolidin-3-yl)urea] was 187 nM; that for `O=C(NC(Cc1ccc(Br)c(F)c1)c1nc2ccccc2[nH]1)N[C@H]1CC[C@H](O)CC1` (relative stereo) [Example 187, 1-(1-(1H-Benzo[d]imidazol-2-yl)-2-(4-bromo-3-fluorophenyl)ethyl)-3-(trans-4-hydroxycyclohexyl)urea] was 8.1 nM; that for `COc1ccc(CC(NC(=O)NCc2cc(C(C)C)on2)c2nc3ccccc3[nH]2)cc1` (stereo not drawn) [Example 377, 1-(1-(1H-Benzo[d]imidazol-2-yl)-2-(4-methoxyphenyl)ethyl)-3-((5-isopropylisoxazol-3-yl)methyl)urea] was 1630 nM. For `COc1ccc(C[C@@H](NC(=O)NC23CCC(O)(CC2)CC3)c2nc3ccc(F)cc3[nH]2)cc1` [Example 196, (R)-1-(1-(6-Fluoro-1H-benzo[d]imidazol-2-yl)-2-(4-methoxyphenyl)ethyl)-3-(4-hydroxybicyclo[2.2.2]octan-1-yl)urea], the EC50 was 0.8 nM. For `COc1ccc(C[C@@H](NC(=O)NC(CN2CCOCC2)c2ccccc2)c2nc3ccccc3[nH]2)cc1` (stereo partly drawn) [Example 214, 1-((R)-1-(1H-Benzo[d]imidazol-2-yl)-2-(4-methoxyphenyl)ethyl)-3-(2-morpholino-1-phenylethyl)urea], the EC50 is 28 nM.

With `COc1ccc(C[C@@H](NC(=O)N[C@H](C)C2CCCCC2)c2nc3ccccc3[nH]2)cc1` [Example 383, 1-((R)-1-(1H-Benzo[d]imidazol-2-yl)-2-(4-methoxyphenyl)ethyl)-3-((R)-1-cyclohexylethyl)urea], the EC50 came out at 1780 nM. The value for `COc1ccc(CC(NC(=O)Nc2cc(-c3ccc(Cl)cc3)nn2C)c2nc3ccccc3[nH]2)cc1` (stereo not drawn) [Example 403, 1-(1-(1H-Benzo[d]imidazol-2-yl)-2-(4-methoxyphenyl)ethyl)-3-(3-(4-chlorophenyl)-1-methyl-1H-pyrazol-5-yl)urea] was 118 nM. Consider `COc1ccc(CC(NC(=O)N[C@H]2CC[C@H](O)CC2)c2nc3cc(F)ccc3[nH]2)c(F)c1F` (single isomer, unassigned; ent-1) [Example 375, 1-(2-(2,3-Difluoro-4-methoxyphenyl)-1-(5-fluoro-1H-benzo[d]imidazol-2-yl)ethyl)-3-(trans-4-hydroxycyclohexyl)urea (ent-1)], for which the EC50 is 0.4 nM. As to `COc1ccc(C[C@@H](NC(=O)NCc2cccnc2N2CCOCC2)c2nc3ccccc3[nH]2)cc1` [Example 206, (R)-1-(1-(1H-Benzo[d]imidazol-2-yl)-2-(4-methoxyphenyl)ethyl)-3-((2-morpholinopyridin-3-yl)methyl)urea], the 50% effective concentration (EC50) was found to be 144 nM. `COc1ccc(C[C@@H](NC(=O)N[C@H]2CC[C@H](C(=O)O)CC2)c2nc3ccccc3[nH]2)cc1` [Example 225, trans-4-(3-((R)-1-(1H-Benzo[d]imidazol-2-yl)-2-(4-methoxyphenyl)ethyl)ureido)cyclohexanecarboxylic acid, lithium salt]: the EC50 stood at 48 nM. The value for `COc1ccc(C[C@@H](NC(=O)NCc2ccccc2CN2CCOCC2)c2nc3ccccc3[nH]2)cc1` [Example 62, (R)-1-(1-(1H-Benzo[d]imidazol-2-yl)-2-(4-methoxyphenyl)ethyl)-3-(2-(morpholinomethyl)benzyl)urea dihydrochloride] was 48 nM; that for `COC(=O)N1CC2CCC1CN2C(=O)N[C@H](Cc1ccc(OC)cc1)c1nc2ccccc2[nH]1` (stereo partly drawn) [Example 162, Methyl 5-(((R)-1-(1H-benzo[d]imidazol-2-yl)-2-(4-methoxyphenyl)ethyl)carbamoyl)-2,5-diazabicyclo[2.2.2]octane-2-carboxylate] was 866 nM.
